Experiment: mn = molality of the nth substance listed, in mol/kg
Details: 74.66 kPa, Liquid; for speed of sound: Frequency=3 MHz, Sing-around technique in a fixed-path interferometer; for mass density: Vibrating tube method

CCCC[N+](CCCC)(CC(C)C)CC(C)C.[Br-] [N-butyl-N,N-bis(2-methylpropyl)-1-butanaminium bromide] + O
Details	mass density, 278.15 K [kg/m3]	mass density, 283.15 K [kg/m3]	mass density, 288.15 K [kg/m3]	mass density, 293.15 K [kg/m3]	speed of sound, 278.15 K [m/s]	speed of sound, 283.15 K [m/s]	speed of sound, 288.15 K [m/s]	speed of sound, 293.15 K [m/s]	speed of sound, 298.15 K [m/s]
m1 = 0.01065	1000.5	1000.23	999.628	998.731	1431.7	1452	1469.2	1485.3	1499.3
m1 = 0.01998	1000.98	1000.71	1000.11	999.207	1433.3	1453.7	1471.8	1487.8	1501.8
m1 = 0.0287	1001.44	1001.16	1000.55	999.654	1435.3	1455.5	1473.4	1489.1	1502.9
m1 = 0.03816	1001.92	1001.65	1001.04	1000.13	–	–	–	–	–
m1 = 0.04991	1002.55	1002.27	1001.65	1000.74	1440.2	1460	1477.6	1493	1506.5
m1 = 0.05935	1003.05	1002.75	1002.13	1001.22	1443	1462.6	1479.9	1495.1	1508.5
m1 = 0.06884	1003.54	1003.25	1002.62	1001.71	1446.3	1465.8	1483.1	1498.3	1511.6
m1 = 0.08078	1004.18	1003.88	1003.25	1002.33	1449	1468.1	1485.2	1500.2	1513.4
m1 = 0.0922	1004.77	1004.47	1003.83	1002.91	1451.4	1470.1	1486.8	1501.5	1514.3
m1 = 0.1044	1005.43	1005.11	1004.46	1003.53	1453.6	1472.4	1488.9	1503.4	1516

CCCC[N+](CCCC)(CCCC)CCCC.[Br-] [tetrabutylammonium bromide] + O
Details	mass density, 278.15 K [kg/m3]	mass density, 283.15 K [kg/m3]	mass density, 288.15 K [kg/m3]	mass density, 293.15 K [kg/m3]	speed of sound, 278.15 K [m/s]	speed of sound, 283.15 K [m/s]	speed of sound, 288.15 K [m/s]	speed of sound, 293.15 K [m/s]	speed of sound, 298.15 K [m/s]
m1 = 0.01142	1000.27	999.991	999.38	998.474	1432	1452.5	1470.9	1487.1	1501.3
m1 = 0.02179	1000.55	1000.26	999.637	998.721	–	–	–	–	–
m1 = 0.02564	1000.66	1000.36	999.733	998.812	1436.7	1457.5	1475.5	1491.3	1504.8
m1 = 0.03767	1000.97	1000.66	1000.02	999.087	1439.6	1459.7	1477.4	1492.9	1506.4
m1 = 0.0459	1001.19	1000.87	1000.23	999.287	1442.7	1462.5	1480.1	1495.5	1508.9
m1 = 0.05856	1001.55	1001.21	1000.54	999.585	1446.1	1465.7	1482.9	1498.1	1511.7
m1 = 0.0711	1001.86	1001.51	1000.83	999.857	1450	1469.4	1486.4	1501.3	1514.3
m1 = 0.07968	1002.09	1001.73	1001.04	1000.05	1453	1472.2	1489.1	1504	1516.9
m1 = 0.09066	1002.42	1002.04	1001.33	1000.34	1455.7	1474.4	1491	1505.4	1517.9
m1 = 0.1003	1002.67	1002.28	1001.54	1000.54	1458	1476.6	1493	1507.3	1519.7

CCC(C)[N+](C(C)CC)(C(C)CC)C(C)CC.[Br-] (stereo unspecified) [tetra-sec-butyl ammonium bromide] + O
Details	mass density, 278.15 K [kg/m3]	mass density, 283.15 K [kg/m3]	mass density, 288.15 K [kg/m3]	mass density, 293.15 K [kg/m3]	speed of sound, 278.15 K [m/s]	speed of sound, 283.15 K [m/s]	speed of sound, 288.15 K [m/s]	speed of sound, 293.15 K [m/s]	speed of sound, 298.15 K [m/s]
m1 = 0.009699	1000.43	1000.15	999.553	998.653	1429.9	1450.7	1469	1485.1	1499
m1 = 0.01981	1000.92	1000.64	1000.03	999.127	1432.6	1453.1	1471.2	1487.4	1500.9
m1 = 0.03014	–	–	–	–	1435.2	1455.5	1473.4	1489.2	1503
m1 = 0.04066	1002	1001.68	1001.04	1000.12	1438.2	1458.2	1475.9	1491.5	1505.2
m1 = 0.04983	1002.49	1002.14	1001.5	1000.59	1440.2	1460.1	1477.6	1493.1	1506.5
m1 = 0.0598	1003.02	1002.66	1002	1001.08	1443.3	1463	1480.4	1495.4	1508.3
m1 = 0.07027	1003.58	1003.21	1002.55	1001.63	1445.7	1465.7	1483.2	1497.7	1510.9
m1 = 0.07997	1004.11	1003.75	1003.08	1002.12	1448.5	1468.4	1485	1499.7	1512
m1 = 0.08984	1004.68	1004.31	1003.61	1002.64	1451.4	1471.3	1488	1501.6	1514.2
m1 = 0.1018	1005.32	1004.97	1004.26	1003.28	1454.9	1474.9	1490.9	1504	1516

From the NIST ThermoML archive (doi:10.1016/j.jct.2015.03.017)
